Measurements taken from patent publication US7381707B2, “Treatment of dry eye” (Johnson & Johnson Consumer Companies, Inc., priority 2005, dated 2008).
“Also recorded” adds a separate entry of the source. No end group written: not given here.

Tests used:
Cyclooxygenase-2 (COX-2) = experiment: COX-2 expression (RT-PCR) in skin of topically treated mice; format: in vivo, SKH1 hairless mice; conditions: for COX-2:GAPDH: 100 μM in 70:30 ethanol:propylene glycol, once daily for 2 weeks (M-F), skin RT-PCR
Method: SKH1 hairless mice, were purchased from Charles River (Kingston, N.Y.), and were housed in appropriately sized cages in an environmentally controlled room with a 12-hour light—12-hour dark photoperiod and supplied with food and water ad libitum. Mice were either untreated, or treated with LIGR or SLIGRL (From California Research Peptide Research Inc. Napa, Calif.), at 100 μM, in 70:30 ethanol: propylene glycol vehicle, once daily for 2 weeks (M-F, no treatment on weekends). Following ten days of treatment, mice were sacrificed and skin samples were processed for RNA extraction and RT-PCR. The treated skins were analyzed for the expression of Cyclooxygenase-2 (COX-2), a known inflammatory mediator. Total RNA (25 ng) from each sample was subjected to one step RT-PCR reaction using OneStep RT-PCR Kit (QIAGEN®, Valencia, Calif.) according to manufacturer's instructions. The reverse transcription was carried out for 30 minutes at 50° C. and a hot start of 15 minutes at 95° C. was then included to activate HotStarTaq™ DNA polymerase in the reaction mix. PCR Primers were synthesized by Integrated DNA Technologies (Coralville, Iowa). Each RT-PCR reaction contained 30 pmol of each primer of COX-2 or 10 pmol of each primer of GAPDH. Each PCR cycle consisted of denaturing for 50 seconds at 94° C., annealing for 1 minute at 58° C., elongation for 1 minute at 72° C. The PCR products were resolved by electrophoresis in 1% agarose gel and stained with ethidium bromide. Kodak Gel logic 100 imaging system was used to take gel pictures and analyze product band density.
The results of this study are shown in Table 5, as expressed in the ratio of COX-2 expression to the expression of the housekeeping gene GAPDH. […] This in vivo study further supports that LIGR is not a classic PAR-2 activator, and is not inducing pro-inflammatory mediators under physiological conditions.

Mucin 1 (MUC1) = experiment: MUC1 gene expression (RT-PCR) in human corneal epithelial equivalents; format: cell-based; conditions: 200 μM; for Fold Change (MUC1:GAPDH): treatment refreshed every day, harvested end of 6th day, band density normalized against GAPDH
Method: Human corneal equivalents were purchased from SkinEthic Laboratories (Nice, France). Equivalents were allowed to equilibrate in SkinEthic growth medium overnight at 5% CO2, and were then treated with SLIGRL (SEQ.ID.NO.17) (200 μM), LIGR (SEQ.ID.NO.1) (200 μM) or Phosphate buffered saline (PBS) as a control. Treatment was refreshed everyday. At the end of the 6th day, equivalent samples were harvested. Total RNA was extracted from the equivalents using RNAqueous™ kit (Ambion, Austin, Tex.) according to manufacture's instructions. RNA samples were then treated with DNA-free kit (Ambion, Austin Tex.). 25 nanograms of total RNA from each sample were amplified using OneStep RT-PCR kit (Qiagen, Valencia, Calif.) according to the manufacture's instructions. PCR Primers were synthesized by Integrated DNA Technologies (Coralville, Iowa). Each RT-PCR reaction contained 30 pmol of each primer of MUC1 or 10 pmol of each primer of glyceraldehyde-3-phosphate dehydrogenase (GAPDH). Each PCR cycle consisted of denaturing for 50 seconds at 94° C., annealing for 1 minutes at 58° C., elongation for 1 minute at 72° C. The PCR products were resolved by electrophoresis in 1% agarose gel and stained with ethidium bromide. Kodak Gel logic 100 imaging system was used to take gel pictures and analyze product band density.
All sample densities were normalized against GAPDH.

HaCaT cells = experiment: Intracellular Ca2+ mobilization (FLIPR) in HaCaT cells; format: cell-based; conditions: for Intracellular calcium mobilization (in words): SLIGRL 4-40 μM, LIGR and scrambled peptide at concentrations as high as 800 μM
Method: HaCaT cells were seeded in a black-wall 96-well plate at about 20,000 cells/100 μl/well and grown overnight in culture medium prior to the experiment. On the day of the experiment, cells were loaded with 100 μl of Calcium Plus assay reagent component A (FLEXstation calcium Plus Assay Kit, Molecular Devices, Sunnyvale, Calif.) prepared in Hanks' Balanced Salt Solution (HBSS, Mediatech, Inc., Herndon, Va.) for 30 minutes according to the manufacturer's protocol. After loading the cells, SLIGRL, LIGR and ISSLRG (at 5× concentration in 50 μl) were added to all wells (final volume 250 μl/well), and intracellular Ca^2+ levels were subsequently assayed using the FLIPR system (Molecular Devices, Sunnyvale, Calif.) to simultaneously monitor fluorescence in all wells (Wavelength−excitation=488 nm, Wavelength−emission=510 nm) according to the manufacture's protocol. The fluorescence intensity was captured every 3 seconds for the first 3 minutes after the addition of the peptides. The results of this study are shown in Table 6, in fluorescence units.

[1] = test system: Human primary neonatal keratinocytes; experiment: Secretion of inflammatory mediators by primary keratinocytes (ELISA / Beadlyte); format: cell-based; conditions: 50 μM, 24 hours; for Fold change in the secretion of inflammatory mediators: IL-6 / Fold change in the secretion of inflammatory mediators: IL-8 / Fold change in the secretion of inflammatory mediators: PGE2 / Fold change in the secretion of inflammatory mediators: PGF2α: cell media; for Fold change in the secretion of inflammatory mediators: IL-6 / Fold change in the secretion of inflammatory mediators: IL-8: Beadlyte; for Fold change in the secretion of inflammatory mediators: PGE2 / Fold change in the secretion of inflammatory mediators: PGF2α: ELISA
Method: Human primary neonatal keratinocytes were purchased from Cascade Biologics (Portland, Oreg.). Cells were cultured in Media 154 supplemented with human keratinocytes growth supplement (Cascade Biologics) and were maintained at <80% confluency. Cells were plated at 6×10^4 per well in 24 well plate and allowed to attach to the well overnight with 5% CO2. Cells were then treated with LIGR (50 μM), SLIGRL (50 μM), the control, scrambled peptide ISLLRG (SEQ.ID.NO.18) (50 μM) or left untreated. Each treatment was done in triplicates. 24 hours later, cell media were collected and examined for the expression and secretion of the inflammatory mediators PGE2, PGF2α, IL-8 and IL-6. PGE2 and PGF2α, using ELISA kits (Cayman Chemicals, Ann Arbor, Mich.) according to manufacturer's instructions. IL-8 and IL-6 levels were detected using Beadlyte Human Multi-cytokine Detection System (Upstate Cell Signaling Solutions, Lake Placid, N.Y.) according to manufacturer's instructions. The experiment was repeated 4 times with different lots of primary keratinocytes.

PAR-2 = molecular target: T1, PAR-2 (Rattus norvegicus, UniProt Q63645); conditions: rats; Nishikawa H et al, J Pharmacol Exp Ther. 2005; cited from earlier work
T1 construct: host or cells: rats in vivo (endogenous receptor)
T1 sequence (Q63645 26-397): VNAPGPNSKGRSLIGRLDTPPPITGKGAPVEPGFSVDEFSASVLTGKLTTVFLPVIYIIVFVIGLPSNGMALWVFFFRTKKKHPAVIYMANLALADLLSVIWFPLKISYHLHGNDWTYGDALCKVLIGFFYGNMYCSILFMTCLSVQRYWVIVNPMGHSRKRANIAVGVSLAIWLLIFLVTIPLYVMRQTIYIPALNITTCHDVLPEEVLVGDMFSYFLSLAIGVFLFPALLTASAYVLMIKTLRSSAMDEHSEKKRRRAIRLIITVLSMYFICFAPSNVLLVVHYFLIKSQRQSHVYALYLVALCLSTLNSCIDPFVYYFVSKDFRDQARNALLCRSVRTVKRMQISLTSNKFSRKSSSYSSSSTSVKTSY

| Substance | COX-2:GAPDH (Cyclooxygenase-2 (COX-2)) | Fold Change (MUC1:GAPDH) (Mucin 1 (MUC1)) | Induction of expression of the MUC1 gene (in words) (Mucin 1 (MUC1); corneal epithelial equivalents) | Fluorescence intensity (HaCaT cells; 40 μM peptide) | Fluorescence intensity (HaCaT cells; 200 μM peptide) | Fluorescence intensity (HaCaT cells; 800 μM peptide) | Intracellular calcium mobilization (in words) (HaCaT cells) | Induction of inflammatory mediators (in words) [1] | Fold change in the secretion of inflammatory mediators: IL-6 [1] | Fold change in the secretion of inflammatory mediators: IL-8 [1] | Fold change in the secretion of inflammatory mediators: PGE2 [1] | Fold change in the secretion of inflammatory mediators: PGF2α [1] | COX-2 expression in vivo (in words) (Cyclooxygenase-2 (COX-2); 100 μM topical, mouse skin) | Fluorescence intensity (HaCaT cells; 4 μM peptide) | Fluorescence intensity (HaCaT cells; 8 μM peptide) | Fluorescence intensity (HaCaT cells; 20 μM peptide) | Increase in the expression and secretion of several inflammatory mediators [1] | Tear secretion (in words) (PAR-2) | Fluorescence intensity (HaCaT cells; 400 μM peptide) |
| --- | --- | --- | --- | --- | --- | --- | --- | --- | --- | --- | --- | --- | --- | --- | --- | --- | --- | --- | --- |
| H2-Leu-Ile-Gly-Arg-NH2 (H-LIGR-NH2) | 0.275 | 2.1 | induces the expression of the mucin1 gene; also recorded: induced the expression of the MUC1 gene | 628.27 fluorescence units | 424.315 fluorescence units | 556.105 fluorescence units | does not induce calcium mobilization; also recorded: do not induce intracellular calcium mobilization | does not induce the secretion of inflammatory mediators; also recorded: did not induce these inflammatory mediators | 1.2 | 1.0 | 0.8 | 0.9 |  |  |  |  |  |  |  |
| SLIGRL-NH2 | 1.168 | 0.7 |  | 2842.92 fluorescence units |  |  | dose dependent increase |  | 2.7 | 3.0 | 2.3 | 1.5 | increased | 1386.9 fluorescence units | 1904.015 fluorescence units | 2003.095 fluorescence units | 1.5-3 times | induce Tear Secretion |  |
| ISLLRG (ISSLRG; SYTHETIC PEPTIDE) [the control, scrambled peptide] |  |  |  | 535.54 fluorescence units |  |  | do not induce intracellular calcium mobilization | did not induce these inflammatory mediators | 1.1 | 1.0 | 0.8 | 1.0 |  |  |  |  |  |  | 744.95 fluorescence units |
